In PubChem BioAssay (NCI):
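1) Cells in 96-well plates. 2) Compound, 48 h, 5 concentrations. 3) Linear interpolation between surrounding doses. 4) Unreached endpoint = highest concentration. Here, GI50 denotes the concentration required for 50% inhibition of growth. TGI is the concentration that stops growth completely.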

Experiments:
Experiment in all cases: NCI anticancer screen, dose series, 48 h
[1] = tested on: K-562 leukemia
[2] = tested on: SK-MEL-28 melanoma
[3] = tested on: UACC-257 melanoma
[4] = tested on: HOP-92 NSCLC
[5] = tested on: CCRF-CEM leukemia
[6] = tested on: UO-31 renal
[7] = tested on: SK-MEL-2 melanoma
[8] = tested on: KM12 colon
[9] = tested on: RXF 393 renal
[10] = tested on: PC-3 prostate

Row | Compound | TGI [1] [µM] | TGI [2] [µM] | TGI [3] [µM] | TGI [4] [µM] | TGI [5] [µM] | TGI [6] [µM] | TGI [7] [µM] | TGI [8] [µM] | TGI [9] [µM] | TGI [10] [nM] | GI50 [1] [nM] | GI50 [9] [nM] | GI50 [7] [nM] | GI50 [10] [nM] | GI50 [2] [nM] | GI50 [3] [nM] | GI50 [5] [nM] | GI50 [8] [nM] | GI50 [6] [nM]
1 | COC(=O)C1=C(c2ccc3c(c2)OCO3)OC(c2cc(OC)c(OC)c(OC)c2)C1 (stereo not drawn) | > 100 | > 100 | > 100 | > 100 | > 100 | > 100 |  |  |  |  |  |  |  |  |  |  |  |  | 
2 | O=C(O)c1ccccc1NC(=O)C1CCCCC1 | > 100 | > 100 | > 100 | > 100 | > 100 | > 100 | > 100 | > 100 |  |  |  |  |  |  |  |  |  |  | 
3 | COC(=O)C1=CC2OC1(C)CCC2=O (stereo not drawn) | > 100 | > 100 | > 100 |  | > 100 | > 100 | > 100 | > 100 | > 100 |  |  |  |  |  |  |  |  |  | 
4 | COc1ccc2nc(NC(=O)C(=O)C(C#N)c3ccc(Cl)c(Cl)c3)sc2c1 (stereo not drawn) | > 100 | > 100 | > 100 | > 100 | > 100 | > 100 | > 100 | > 100 | > 100 |  |  |  |  |  |  |  |  |  | 
5 | O=C1NC(=O)C2C1N(Cc1ccccc1)C(=O)N2Cc1ccccc1 (stereo not drawn) | > 100 | > 100 | > 100 | > 100 | > 100 | > 100 |  | > 100 | > 100 |  |  |  |  |  |  |  |  |  | 
6 | O=C1OC(CN2CCOCC2)CN1/N=C/c1ccc([N+](=O)[O-])o1 (stereo not drawn) | > 100 | > 100 | > 100 | > 100 | > 100 | > 100 | > 100 | 45.8 |  | > 100000 |  |  |  |  |  |  |  |  | 
7 | CC1=CC(=O)N(c2c(C)cccc2Cl)C(C)N1 (stereo not drawn) | > 100 | > 100 | > 100 | > 100 | > 100 | > 100 | > 100 | > 100 | > 100 |  |  |  |  |  |  |  |  |  | 
8 | O=[N+]([O-])c1ccc(Cl)cc1C1SCc2nc3ccccc3n21 (stereo not drawn) | > 100 | > 100 | > 100 |  | > 100 | > 100 | > 100 | > 100 | 73.3 |  |  |  |  |  |  |  |  |  | 
9 | COc1ccc2c(c1OC)C(=O)c1cnccc1C2=O | > 100 | > 100 | > 100 | > 100 | > 100 | > 100 | > 100 | > 100 | > 100 |  |  |  |  |  |  |  |  |  | 
10 | COc1cc(Cl)cc(-c2nn(-c3cccc(NC(=O)Nc4ccc(Cl)c(C(F)(F)F)c4)c3)cc2-c2ccncc2)c1 | 10.1 | 8.41 | 4.93 |  | 3.65 | 10.9 | 4.21 | 4.44 | 4.42 | 2120 | 537 | 1710 | 1790 | 342 | 2410 | 1890 | 613 | 555 | 1660
11 | O=C(CC1C(=O)Nc2ccccc2S1=O)Nc1ccc(Cl)cc1 (stereo not drawn) | > 100 | > 100 | > 100 | 83.4 |  | > 100 | > 100 | > 100 |  |  |  |  |  |  |  |  |  |  | 
12 | O=C1C2Nc3ccccc3SC2C(=O)N1c1ccccc1C(F)(F)F (stereo not drawn) | > 100 | > 100 | > 100 | > 100 | > 100 | > 100 | > 100 | > 100 | 23.7 |  |  |  |  |  |  |  |  |  | 
